Structures can show the parent of a compound that is named as a salt.
Biological target: T1, phospholipase A₂ isolated from rat perotoneum (Rattus norvegicus, UniProt P14423)
T1 construct: Enzyme-containing exudate was aspirated through an abdominal incision; Separation of the enzyme from the exudate was accomplished by centrifugation; from tissue; host or cells: peritoneal exudate of casein-injected male Wistar rats
T1 sequence (P14423 22-146): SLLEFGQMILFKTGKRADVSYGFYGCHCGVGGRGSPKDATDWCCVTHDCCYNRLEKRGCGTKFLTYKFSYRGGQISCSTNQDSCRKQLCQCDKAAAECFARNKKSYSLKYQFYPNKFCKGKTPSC
Assay: phospholipase A₂ inhibition, spectrophotometric assay with Thio Pc Substrate (modified Hendrickson et al. procedure)
Assay type: biochemical
Conditions: for inhibition at 100 µM: @ 1.0̸ x 10̸⁻⁴M, read-out: % PLA₂ Inhibition; for IC50: concentration of inhibitor which reduces enzymatic activity by 50̸%, printed in the column % PLA₂ Inhibition
Procedure: The substrate employed in the modified assay, was 1,2-bis(decanoylthio)-1,2-­dideoxyglycerol-3-phosphocholine (hereinafter "Thio Pc Substrate"). The enzyme utilized in the procedure was phospholipase A₂ isolated from rat perotoneum as follows:
Male Wistar rats weighing 200-300 g a piece were injected interperitoneally at a dosage of 50 ml/kg of body weight (20 g of casein as the sodium salt diluted to 500 ml in distilled water). After a period of 18-24 hours the animals were sacrificed. Thereafter, each animal was injected interperitoneally with 30 ml of an isotonic salt solution to which sodium heparin was added prior to use at a concentration of 5 units/ml. Enzyme-containing exudate was aspirated through an abdominal incision. Separation of the enzyme from the exudate was accomplished by centrifugation.
Pursuant to the assay procedure, Thio Pc Substrate was apportioned into 1.25 mg aliquots. To each aliquot was added 4 ml of 160 mM tris hydrogen chloride buffer (pH 7.5) containing 2mM of calcium chloride and 2mM of sodium taurocholate. The resulting dispersions were vortexed at room temperature to clear solutions. Inhibition activity of the alkylphospholipids of this invention was determined utilizing spectrophotometric samples prepared by the addition of 5 µl of 4,4′-dithiopyridine and 395 ml of buffered Thio Pc substrate to a perincubated dispersion of 50 µl of alkylphospholipid (appropriately diluted in buffer) in 50 µl of enzyme (appropriately diluted in buffer). Absorbence at (0.5 full scale ) was recorded at a chart speed of 2 cm/min on a Gilford Model 250 Spectrophotometer.
The percentage of phospholipase A₂ inhibition was calculated by means of the following formula: [formula] wherein "inhibitor slope" is the slope of the spectrophotometric curve obtained for a given alkylphospholipid-containing sample and 'control slope" is the slope of the spectrophotometric curve obtained for an otherwise identical sample lacking an inhibitor.

## CCCCCCCCCCCCCCCC(O)CCCOP(=O)([O-])OCC[N+](C)(C)C (centres unmarked) [4,9-Dihydroxy-N,N,N-trimethyl-3,5-dioxa-4-phosphatetracosan-1-aminium, hydroxide, inner salt sesquihydrate]
  inhibition at 100 µM: 45.6%

## CCCCCCCCCCCCCCCCC(O)CCCOP(=O)([O-])OCC[N+](C)(C)C (centres unmarked) [4,9-Dihydroxy-N,N,N-trimethyl-3,5-dioxa-4-phosphopentacosan-1-aminium, 4-oxide, hydroxide, inner salt monohydrate]
  IC50: 95 µM

## CCCCCCCCCCCCCCCCCC(CCCOP(=O)([O-])OCC[N+](C)(C)C)OCc1ccccc1 (centres unmarked) [4-Hydroxy-N,N,N-trimethyl-9-phenylmethoxy-3,5-dioxa-4-phosphahexacosan-1-aminium, 4-oxide, hydroxide, inner salt monohydrate]
  IC50: 84 µM

## CCCCCCCCCCCCCCCC(CCCOP(=O)([O-])OCC[N+](C)(C)C)OCc1ccccc1 (centres unmarked) [4-Hydroxy-N,N,N-trimethyl-9-phenylmethoxy-3,5-dioxa-4-phosphatetracosan-1-aminium, 4-oxide, hydroxide, inner salt monohydrate]
  inhibition at 100 µM: 41.8%

## CCN(CC)CCCC(C)Nc1c2ccc(Cl)cc2nc2ccc(OC)cc12 (centres unmarked) [Quinacrine, reference compound]
  IC50: 31 µM
